Experimental data taken from ChEMBL document CHEMBL5357053, “Neopetrotaurines A-C, Isoquinoline Alkaloids with an Unprecedented Taurine Bridge from the Sponge Neopetrosia sp” (J Nat Prod, 2024).
Active and inactive are the calls of the source. The calls are words filed in the database; no cut-off is given here.

Tested on: not listed separately
Assay: Antiproliferative activity against human Rh4 cells assessed as inhibition of cell viability measured after 72 hrs by IncuCyte live-cell imaging assay
Type: functional, cell-based
Details: Rh4, 72 h
Compound `COC1=C(C)C(=O)c2c(cn(C)c(=O)c2NCCS(=O)(=O)Oc2c(C)c(OC)c(O)c3c[n+](C)ccc23)C1=O` has an IC50 of 1.9 µM.
Work on `COC(=O)c1cc2c(OS(=O)(=O)CCNc3c4c(cn(C)c3=O)C(=O)C(OC)=C(C)C4=O)c(C)c(OC)c(O)c2c[n+]1C` yielded an IC50 of 3.3 µM.
Work on `COC1=C(C)C(=O)c2c(cn(C)c(=O)c2NCCS(=O)(=O)Oc2c(C)c(OC)c(O)c3c[n+](C)c(C(=O)O)cc23)C1=O` yielded an IC50 of 2.3 µM.

Tested on: not listed separately
Assay: Antiproliferative activity against human SCMC cells assessed as inhibition of cell viability measured after 72 hrs by IncuCyte live-cell imaging assay
Type: functional, cell-based
Details: not given
`COC1=C(C)C(=O)c2c(cn(C)c(=O)c2NCCS(=O)(=O)Oc2c(C)c(OC)c(O)c3c[n+](C)ccc23)C1=O` gave an IC50 of 7.3 µM.
For `COC(=O)c1cc2c(OS(=O)(=O)CCNc3c4c(cn(C)c3=O)C(=O)C(OC)=C(C)C4=O)c(C)c(OC)c(O)c2c[n+]1C`, the IC50 was 11 µM.
For `COC1=C(C)C(=O)c2c(cn(C)c(=O)c2NCCS(=O)(=O)Oc2c(C)c(OC)c(O)c3c[n+](C)c(C(=O)O)cc23)C1=O`, the IC50 was 7.4 µM.

Tested on: Rh4
Assay: Downregulation of FOXO1 target gene set in human Rh4 cells measured after 6 hrs by GSEA method
Type: functional, cell-based
Details: dose 1.9 µM
With `COC1=C(C)C(=O)c2c(cn(C)c(=O)c2NCCS(=O)(=O)Oc2c(C)c(OC)c(O)c3c[n+](C)ccc23)C1=O` the Activity was “inactive”.
In the case of `COC(=O)c1cc2c(OS(=O)(=O)CCNc3c4c(cn(C)c3=O)C(=O)C(OC)=C(C)C4=O)c(C)c(OC)c(O)c2c[n+]1C`, the Activity is reported as “Active”.
In the case of `COC1=C(C)C(=O)c2c(cn(C)c(=O)c2NCCS(=O)(=O)Oc2c(C)c(OC)c(O)c3c[n+](C)c(C(=O)O)cc23)C1=O`, the Activity is reported as “inactive”.

Tested on: SCMC
Assay: Downregulation of FOXO1 target gene set in human SCMC cells measured after 6 hrs by GSEA method
Type: functional, cell-based
Details: not given
With `COC1=C(C)C(=O)c2c(cn(C)c(=O)c2NCCS(=O)(=O)Oc2c(C)c(OC)c(O)c3c[n+](C)ccc23)C1=O` the Activity was “inactive”.
For `COC(=O)c1cc2c(OS(=O)(=O)CCNc3c4c(cn(C)c3=O)C(=O)C(OC)=C(C)C4=O)c(C)c(OC)c(O)c2c[n+]1C`, the Activity was “Active”.
With `COC1=C(C)C(=O)c2c(cn(C)c(=O)c2NCCS(=O)(=O)Oc2c(C)c(OC)c(O)c3c[n+](C)c(C(=O)O)cc23)C1=O` the Activity was “inactive”.
